Reference: US20140213466A1, “HIGH-THROUGHPUT ASSESSMENT METHOD FOR CONTACT HYPERSENSITIVITY” (Rutgers, The State University of New Jersey, priority 2010, published 2014)

What was measured:
[1] = tested on: skin tissues (Episkin / Mutz3-LC co-culture); assay: cytokine measurements (27 cytokines) of skin tissues exposed to known sensitizing chemicals, analysed by PCA; type: cell-based, human; conditions: several chemical concentrations, multiple replicates, comparison IE vs SA
Experimental: We have taken cytokine measurements of skin tissues that were exposed to known sensitizing chemicals. […] Principal component analysis (PCA) was used to reduce the high dimensional data into a lower dimension so that the differences in response from each chemical could be visualized.
Multiple cytokines and growth factors were assessed using the Biorad Bioplex Analyzer. 1 ml supernatants were collected for undifferentiated Mutz3 cells, Day 7 differentiated cells [Mutz3-LC] and Day 9 mature cells [mMutz3-LC]. The supernatants were tested for 27 cytokines with respective standards to detect cytokine secretion levels. Basal media samples were utilized as controls and supplementation with growth factors and cytokines viz. GMCSF, TGF-beta1, TNF-alpha, IL-6, IL1β were taken into account in the calculations. Cytokine secretion levels [pg/ml] were converted to [pg/million cells/day] by normalizing with the cell number for each cell stage of differentiation.
Different doses of SA (Salicylic Acid), IE (Isoeugenol), PPD (Paraphenylenediamine) and DNCB (DiNitroChlorobenzene) were topically applied onto a 1 cm^2 nylon disc to Episkin™ in 12 well inserts. The lower chamber consisted of Mutz3-LCs at a density of 250,000 cells/ml. Forty eight (48) hrs post sensitization, cells were resuspended in 1 ml fresh maturation media, supernatants were collected for subsequent analysis and cell count was performed. […]

[2] = stated as known property of the chemical; cited from earlier work

## O=C(O)c1ccccc1O
[1]
  cytokine profile induced in skin tissues (PCA, FIG. 11): do not induce distinct cytokine profiles
[2]
  skin sensitizer class: non-sensitizing irritant

## CC=Cc1ccc(O)c(OC)c1 [isoeugenol]
[1]
  cytokine profile induced in skin tissues (PCA, FIG. 11): do not induce distinct cytokine profiles
[2]
  skin sensitizer class: strong sensitizer
